Experimental data published in patent US4713453A, “Oxabicycloheptane derivatives” (Suntori Limited, priority 1986, dated 1987).

How the values were obtained:
[1] = system: Male ddY mice; assay: Anti-cerebroischemic effect (brain protection after ischemia by decapitation): gasping time; format: in vivo, mouse (male ddY); conditions: intraperitoneal, 30 min before decapitation
Description: 1. Anti-cerebroischemic effect (i.e., brain protection after ischemia by decapitation)
Male ddY mice weighing 22-30 g were used in groups each consisting of 6 animals. Test compounds were administered intraperitoneally to the mice which were decapitated 30 minutes after the administration. The gasping time, or the duration of time between the onset of panting after decapitation and its cessation, was measured, and this was compared with the gasping time for a control group which were given only a liquid vehicle.

[2] = system: Male ddY mice; assay: Anti-hypoxia effect (brain protection in low-oxygen state after evacuation): survival time; format: in vivo, mouse (male ddY); conditions: intraperitoneal, 180 mmHg
Description: 2. Anti-hypoxia effect (i.e., […] protection in low-oxygen state after evacuation)
Male ddY m8mice weighing 22-30 g were used in groups each consisting of 7-10 animals. The mice were placed in a desiccator (capacity: ca. 1,000 ml) which was evacuated with a vacuum pump to an internal pressure of 180 mmHg after intraperitoneal administration of test compounds. The survival time, or the duration of time between the start of evacuation and the cessation of breathing, was measured, and this was compared with the value for a vehicle group. Any survival time longer than a period of 15 minutes after application of a hypoxia load was counted as 15 minutes.

[3] = system: peroxylipid formation; assay: Anti-lipidperoxidation effect (TBA assay of malondialdehyde in rat brain homogenate); format: biochemical, rat (male Wistar); conditions: for Inhibition of peroxylipid formation: 10 μl (10^-4 M) test compound in 990 μl sample, 37° C., 30 minutes, pH 7.4; for anti-lipidperoxidation effects: rat brain homogenate
Description: 3. Anti-lipidperoxidation effect
Male Wistar rats weighing 200-250 g were used. The brain of each rat was extracted after decapitation, homogenized with 50 mM of a phosphate buffer solution (PBS, pH 7.4) and centrifuged at 1,000 g for 15 minutes. The supernatant was stored frozen at -30° C. Before use, it was thawed under flowing water and diluted with PBS three-fold to prepare a live sample.
Two samples were prepared by adding 10 μl (10^-4 M) of a test compound in solution to 990 μl of the live sample. One sample was incubated at 37° C. for 30 minutes and reaction was quenched by addition of 0.2 ml of 35% aqueous perchloric acid. The other sample was immediately mixed with 35% perchloric acid without incubation. Each of the mixtures was centrifuged at 3,000 rpm for 15 minutes and 0.5 ml of the supernatant was subjected to TBA assay (Yagi et al., Anal. Biochem., 95, 351 (1979)) for determining the malondialdehyde (MDA) content (×10^-4 M) by subtracting the peroxylipid level for the unincubated mixture from that for the incubated mixture. The percent inhibition of peroxylipid formation was calculated by the following formula: [formula] where A is the MDA content of a treated sample and B is the value for a control sample that was not treated with any test compound.

[4] = system: scopolamine amnesia mouse; assay: Anti-amnesia effect (scopolamine-induced retrograde amnesia), step-through passive avoidance; format: in vivo, mouse (male ddY); conditions: ip, 24 h, significant prolongation of step-through latency, intraperitoneal, scopolamine 0.5 mg/kg s.c., read-out: Minimum effective amount
Description: 6a. Anti-amnesia effect (i.e., capability of preventing scopolamine-inducedretrograde amnesia)
Five-week old male ddY weighing 25-30 g were used in groups each consisting of 10 animals. Memory retention deficit induced by scopolamine was evaluated by two-compartment step-through passive avoidance task. […] The floor of the dark compartment was provided with a current-conducting grid.
The experimental method was as follows. A scopolamine amnesia mouse that had been given subcutaneous injection of 0.5 mg/kg of an aqueous solution of scopolamine borate 20 minutes before was placed in the light compartment and when its forefeet touched the grid floor of the dark compartment, a current of 0.6 mA was applied to give a foot shock to the mouse (acquired conation). Immediately thereafter, a selected test compound or a control (physiological saline solution) was administered intraperitoneally. Twenty-four hours later, the mouse was replaced in the light compartment and the step-through latency, or the time required for the mouse to move to the dark compartment, was measured for a period of up to 300 seconds (test conation). The minimum effective amount of the test compound that provided a significant prolongation of the step-through latency over the control was determined.

| Structure (SMILES) | prolongation of gasping time ([1]; 25 mg/kg) | prolongation of survival time ([2]; 12.5 mg/kg) | Inhibition of peroxylipid formation [3] [%] | also measured |
| --- | --- | --- | --- | --- |
| CN(C)CCCCCON=C1c2ccccc2OC2(c3ccccc3)CC12 (stereo not shown) [Example 21, 3,4-Benzo-5-(5-dimethylaminopentyl)oxyimino-1-phenyl-2-oxabicyclo[4.1.0]heptane] | significantly prolonging the gasping time | significantly prolonging the survival time | 62.1 | prolongation of gasping time ([1]; 12.5 mg/kg): significant prolongation of the gasping time; minimal effective dose [4]: 25 mg/kg |
| CCN(CC)CCCON=C1c2ccccc2OC2(c3ccccc3)CC12 (stereo not shown) [Example 16] | – | – | 83.3 | anti-lipidperoxidation effects [3]: strong anti-lipidperoxidation effects |
| CN(C)CCCON=C1c2ccc(O)cc2OC2(c3ccccc3)CC12 (stereo not shown) [Example 34, 3,4-(3-Hydroxybenzo)-5-(3-dimethylaminopropyl)oxyimino-1-phenyl-2-oxabicyclo[4.1.0]heptane] | – | – | 79.9 | – |
| CN(C)CCOC1c2ccc(Cl)cc2OC2(c3ccccc3)CC12 (stereo not shown) [Example 26, 3,4-(3-Chlorobenzo)-5-(2-dimethylaminoethyl)oxy-1-phenyl-2-oxabicyclo[4.1.0]heptane] | significantly prolonging the gasping time | – | 79.1 | – |
| CN(C)CCCOC1c2ccc(O)cc2OC2(c3ccccc3)CC12 (stereo not shown) [Example 35, 3,4-(3-Hydroxybenzo)-5-(3-dimethylaminopropyl)oxy-1-phenyl-2-oxabicyclo[4.1.0]heptane] | – | – | 69.0 | – |
| CNCCCCON=C1c2ccccc2OC2(c3ccccc3)CC12 (stereo not shown) [Example 20, 3,4-Benzo-5-(4-methylaminobutyl)oxyimino-1-phenyl-2-oxabicyclo[4.1.0]heptan] | significantly prolonging the gasping time | – | – | – |
| CN(C)CCCCON=C1c2ccccc2OC2(c3ccccc3)CC12 (stereo not shown) [Example 19, 3,4-Benzo-5-(4-dimethylaminobutyl)oxyimino-1-phenyl-2-oxabicyclo[4.1.0]heptane] | – | – | 52.6 | – |
| COc1ccc2c(c1)OC1(c3ccccc3)CC1C2=NOCCN(C)C (stereo not shown) [Example 7, 3,4-(3-Methoxybenzo)-5-(2-dimethylaminoethyl)oxyimino-1-phenyl-2-oxabicyclo[4.1.0]heptane] | significantly prolonging the gasping time | – | – | minimal effective dose [4]: 20 mg/kg |
| CN(C)CCCON=C1c2ccc(Cl)cc2OC2(c3ccc([N+](=O)[O-])cc3)CC12 (stereo not shown) [Example 12, 3,4-(3-Chlorobenzo)-5-(3-dimethylaminopropyl)oxyimino-1-(4-nitrophenyl)-2-oxabicyclo[4.1.0]heptane] | – | – | 99.0 | anti-lipidperoxidation effects [3]: strong anti-lipidperoxidation effects |
| CC(CON=C1c2ccccc2OC2(c3ccccc3)CC12)CN(C)C (stereo not shown) [Example 4, 3,4-Benzo-5-(3-dimethylamino-2-methylpropyl)-oxyimino-1-phenyl-2-oxabicyclo[4.1.0]heptane] | – | significantly prolonging the survival time | 56.0 | – |
| CN(C)CCCCCCOC1c2ccccc2OC2(c3ccccc3)CC12 (stereo not shown) [Example 31] | – | significantly prolonging the survival time | – | prolongation of survival time ([2]; 6.25 mg/kg or smaller): significant prolongation of the survival time |
| CN(C)CCON=C1c2ccccc2OC2(c3ccccc3)CC12 (stereo not shown) [Example 1, 3,4-Benzo-5-(2-dimethylaminoethyl)oxyimino-1-phenyl-2-oxabicyclo[4.1.0]heptane] | significantly prolonging the gasping time | – | 56.9 | – |
| CN(C)CCCON=C1c2ccccc2OC2(c3cccs3)CC12 (stereo not shown) [Example 11, 3,4-Benzo-5-(3-dimethylaminopropylo)xyimino-1-thienyl-2-oxabicyclo[4.1.0]heptane] | – | significantly prolonging the survival time | – | – |
| CN(C)CCOC1c2ccccc2OC2(c3ccccc3)CC12 (stereo not shown) [Example 23, 3,4-Benzo-5-(2-dimethylaminoethyl)oxy-1-phenyl-2-oxabicyclo[4.1.0]heptane] | significantly prolonging the gasping time | – | – | prolongation of gasping time ([1]; 12.5 mg/kg): significant prolongation of the gasping time; minimal effective dose [4]: 50 mg/kg |
| CN(C)CCON=C1c2ccc(Cl)cc2OC2(c3ccccc3)CC12 (stereo not shown) [Example 8, 3,4-(3-Chlorobenzo)-5-(2-dimethylaminoethyl)oxaimino-1-phenyl-2-oxabicyclo[4.1.0]heptane] | significantly prolonging the gasping time | – | 90.2 | anti-lipidperoxidation effects [3]: strong anti-lipidperoxidation effects |
| CNCCCON=C1c2ccccc2OC2(c3ccccc3)CC12 (stereo not shown) [Example 15, 3,4-Benzo-5-(3-methylaminopropyl)oxyimino-1-phenyl-2-oxabicyclo[4.1.0]heptane] | – | significantly prolonging the survival time | 85.7 | anti-lipidperoxidation effects [3]: strong anti-lipidperoxidation effects |
| COc1ccc2c(c1)OC1(c3ccccc3)CC1C2OCCN(C)C (stereo not shown) [Example 28, 3,4-(3-Methoxybenzo)-5-(2-dimethylaminoethyl)oxy-1-phenyl-2-oxabicyclo[4.1.0]heptane] | significantly prolonging the gasping time | – | 77.6 | prolongation of gasping time ([1]; 12.5 mg/kg): significant prolongation of the gasping time; minimal effective dose [4]: 12.5 mg/kg |
| CN(C)CCCOC1c2ccc(Cl)cc2OC2(c3ccccc3)CC12 (stereo not shown) [Example 27, 3,4-(3-Chlorobenzo)-5-(3-dimethylaminopropyl)oxy-1-phenyl-2-oxabicyclo[4.1.0]heptane] | significantly prolonging the gasping time | – | 62.0 | prolongation of gasping time ([1]; 12.5 mg/kg): significant prolongation of the gasping time |
| CN(C)CCCON=C1c2ccc(Cl)cc2OC2(c3ccccc3)CC12 (stereo not shown) [Example 9] | significantly prolonging the gasping time | – | 82.7 | anti-lipidperoxidation effects [3]: strong anti-lipidperoxidation effects |
| CN(C)CCCOC1c2ccccc2OC2(c3ccccc3)CC12 (stereo not shown) [Example 24, 3,4-Benzo-5-(3-dimethylaminopropyl)oxy-1-phenyl-2-oxabicyclo[4.1.0]heptane] | significantly prolonging the gasping time | – | – | prolongation of gasping time ([1]; 12.5 mg/kg): significant prolongation of the gasping time |
| c1ccc(C23CC2C(=NOCCC24CCCN2CCC4)c2ccccc2O3)cc1 (stereo not shown) [Example 5, 3,4-Benzo-5-(2-pyrrolizidin-8-ylethyl)oxyimino-1-phenyl-2-oxabicyclo[4.1.0]heptane] | – | significantly prolonging the survival time | 96.5 | anti-lipidperoxidation effects [3]: strong anti-lipidperoxidation effects |
| CN(C)CCCCOC1c2ccccc2OC2(c3ccccc3)CC12 (stereo not shown) [Example 30, 3,4-Benzo-5-(4-dimethylaminobutyl)oxy-1-phenyl-2-oxabicyclo[4.1.0]heptane] | significantly prolonging the gasping time | significantly prolonging the survival time | – | prolongation of survival time ([2]; 6.25 mg/kg or smaller): significant prolongation of the survival time; minimal effective dose [4]: 12.5 mg/kg |
